Reference: article PMC12808100, “The non-catalytic DNA polymerase ε subunit is an NPF motif recognition protein” (Nature Communications, 2025)

The substances below were run against His6-avi-MBP-tagged POLE2 (assay: Single-point nHU-MS with recombinant His6-avi-MBP-POLE2 bait, Jurkat extract). Settings: significant apparent affinity of endogenous prey protein for POLE2 bait; single-point nHU-MS; Figure S11.
Format: binding, human
Text: So far, our study only focused on a few hand-picked NPF motifs and studied them as short synthetic peptides. However, many other proteins may be present in the proteome that could bind to POLE2 and their putative NPF motifs are embedded in their natural structures that can greatly affect their binding properties. To investigate interactions between POLE2 and intact, full length proteins proteome-wide, we used nHU-MS experiments with recombinant His6-avi-MBP-tagged POLE2 as bait and purified His6-avi-MBP as a control. Even though we are aware that this recombinant POLE2 may bind to NPF motifs with a somewhat altered affinity, we assumed that this would affect all NPF motif-mediated interactions equally, allowing an unbiased affinity ranking of all identified partners. Single point nHU measurements were performed at 26 μM POLE2 concentration and the recovered supernatant was measured by label free proteomic MS measurements (Fig. 3A, Supplementary Figs. 8A, 9, Supplementary Data 1).
Single-point nHU experiments with protein baits were carried out nearly identically with two key modifications. First, the resin saturation step was carried out by mixing 50 μl streptavidin resin with 0.5−1 ml 50 μM biotinylated protein solution and the mixture was incubated for 1.5 h at 4 °C with constant agitation. Second, instead of using estimated bait concentrations, we measured it experimentally. An extra aliquot of resin stock was prepared alongside the nHU samples that were identically processed that were used to eluate the immobilized proteins under harsh conditions, in order to experimentally quantify the Cbait by using densitometry of Coomassie stained SDS-PAGE that included a protein calibration series. For this, 50 μl bait-saturated resin aliquots were mixed with 200 μl 4x Laemmli Sample Buffer (120 mM Tris-HCl pH 7, 8% SDS, 100 mM DTT, 32% glycerol, 0.004% bromphenol blue, 1% β-mercaptoethanol), instead of cell extract. After 15 min incubation at 95 °C, these samples were analyzed by SDS-PAGE using protein calibration standard, made from recombinant MBP. Densitometry was carried out after Coomassie staining on raw Tif images by using Fiji ImageJ 1.53c and experimental bait concentration were determined by adjusting for molecular weight differences between MBP and MBP-POLE2 constructs.
Samples were digested overnight at 37 °C.
“HARISSTSHT [TRIP11, endogenous full length prey protein]” gave a pKapp_sign of 4.056. KSVD [MYCBP2] gave a pKapp_sign of 4.444. For NSVD [GYS1], the pKapp_sign was 4.403. Substance “TSSTPE [AGFG1, endogenous full length prey protein]” has a pKapp_sign of 4.872.
